Measurements published in US6663865B1, “Tumor necrosis factor antagonists and their use in endometriosis” (Applied Research Systems ARS Holding N.V., priority 1999, dated 2003).

Assays:
[1] = system: endometriosis; settings: cited from earlier work
[2] = system: endometriotic-like foci; test: Experimental model of endometriosis in the rat (size of engraftments); type: in vivo; settings: for Mean ± SEM Post-treatment values (engraftment surface area): s.c., soluble TNF-RI 10 mg/kg, Antide 2 mg/kg; for Mean ± SEM Pre-treatment values (engraftment surface area): baseline at pre-treatment laparatomy
Description: Experimental model of endometriosis in the rat. To explore the effects of the recombinant soluble TNF-RI in endometriosis, a previously described experimental model (Jones, 1987) was used with minor modifications. Under Inoketam/Rompun anaesthesia, an autologous fragment of endometrial tissue (1 cm in length) was resected from the right uterine horn and placed in PBS at 37° C. The uterine segment was opened by a longitudinal incision, and a 5×5 mm section was transplanted, without removing the myometrium, onto the inner surface of the abdominal wall using non-absorbable silk suture at four comers.
Exploration of the study drugs effects in the experimental model of endometriosis. […] One further group of rats, not undergoing any surgical procedure, was kept as a normal control group. Three weeks after the induction of endometriosis, the animals underwent a second laparatomy (pre-treatment laparatomy) to evaluate the size and viability of the ectopic endometrial tissue. The surface area (length×width) was measured using a calliper and recorded. The animals showing viable engraftments were assigned to the designated treatment groups as reported in Table I, so that at the end of the experiment, six animals/group for the first sacrifice time-point and five animals/group for the second sacrifice time-point were obtained. The treatments were started after a 1-week recovery period. The control groups received saline alone; another group received three subcutaneous injections of 2 mg/kg Antide every 3 days with a regimen previously shown to suppress ovarian and hypothalamic activity (Sharpe et al., 1990). A further group received 10 mg/kg recombinant soluble TNF-RI, divided into two daily doses over a 1-week period.
(§1) At the designated sacrifice time-points (2 and 9 days after the last treatment i.e. 36 and 43 days after surgical engraftment), the animals were anaesthetised; blood samples were collected from abdominal aorta, sera were separated and stored at −20° C. until analyzed for estradiol-17β level determination. Spleens were excised for measurement of the Natural Killer (NK) activity. The surface area of endometriosis-like foci were measured at each sacrifice time-point in order to normalize data, the percent variation versus the pre-treatment laparatomy value was calculated by the formula: [formula]
where X0 is the size at time of pre-treatment laparatomy and X is the size at the time of sacrifice. The mean value of percent variation in each group was then computed.

[3] = Serum estradiol-17β determination by radioimmunoassay in rats with experimental endometriosis; type: in vivo, rat; settings: second observation time-point (9 days after last treatment)
Description: as §1
Estradiol-17β determination. Serum estradiol-17β concentrations were determined using a commercially available kit to quantify estradiol in serum with no extraction step (DPC, Los Angeles, Calif., USA). Briefly, ^125I-labeled estradiol competes with estradiol in the serum sample for antibody sites. After incubation, separation of bound from free was achieved by decanting. The tube was then counted in a gamma counter (LKB-Pharmacia Wallak), the counts being inversely related to the amount of estradiol present in the serum sample. The quantity of estradiol in the samples was determined by comparing the counts to a calibration curve. […] Samples from the same experimental session were analyzed in a single immunoassay.

Compound | crude recurrence rates ([1]; after up to 4 years) | patients suffering from pain with improved symptoms ([1]; endometriosis patients) | patients abandoning therapy because of weight gain and androgenic side effects ([1]; human, in vivo) | size reduction of the endometriotic-like foci compared to the original dimension ([2]; 2 days after last treatment (first sacrifice time-point)) | Mean ± SEM Post-treatment values (engraftment surface area) ([2]; 2 days after last treatment) | size reduction of the endometriotic-like foci compared to the original dimension ([2]; 9 days after last treatment (second sacrifice time-point)) | Mean ± SEM Post-treatment values (engraftment surface area) ([2]; 9 days after last treatment) | Mean ± SEM Pre-treatment values (engraftment surface area) ([2]; group observed 2 days after last treatment) | Mean ± SEM Pre-treatment values (engraftment surface area) ([2]; group observed 9 days after last treatment) | serum estradiol-17β concentration compared to untreated controls [3]
C#C[C@]1(O)CC[C@H]2[C@@H]3CCC4=Cc5oncc5C[C@]4(C)[C@H]3CC[C@@]21C [Danazol] | 40%-50% | 66-100% | up to 80% |  |  |  |  |  |  | 
Antide |  |  |  | 94% | 0.08 ± 0.02 cm^2 | 88% | 0.19 ± 0.09 cm^2 | 1.43 ± 0.34 cm^2 | 1.41 ± 0.32 cm^2 | significant difference
